Activity calls are given as the source filed them.
Experiments:
[1] = blockers of HIV-1 envelope-mediated cell-cell fusion – cherry-pick, dose response (AID 652057); assay type: functional, cell-based
[2] = viability loss in CEM21 cells – cell-based, CellTiter-Glo luminescence, cherry-picked, cytotoxicity control for viral fusion inhibitor project, dose response (AID 652042); assay type: functional;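 note: potency for signal decrease meaning cytotoxicity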
INS1 = assay: INS-1E survival protection against cytokine death – cell-based, luminescence, retest, dose response (AID 449756); assay type: functional; settings: Rattus norvegicus;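 note: cell death triggered by IL-1 beta plus TNF-alpha plus IFN-gamma mixture; protective hits raise ATP signal compared with cytokine alone wells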
[3] = viability loss in HeLa cells – cytotoxicity control for MgcRacGAP inhibitor project, dose response (AID 624300); assay type: functional
[4] = molecular target: T1, Rac GTPase-activating protein 1 (Homo sapiens, UniProt Q9H0H5); assay: blockers of MgcRacGAP-driven Rac1 GTP hydrolysis – biochemical, ADP Hunter fluorescence, primary and confirmatory, confirmation (AID 624330); assay type: functional
T1 sequence (Q9H0H5 whole entry): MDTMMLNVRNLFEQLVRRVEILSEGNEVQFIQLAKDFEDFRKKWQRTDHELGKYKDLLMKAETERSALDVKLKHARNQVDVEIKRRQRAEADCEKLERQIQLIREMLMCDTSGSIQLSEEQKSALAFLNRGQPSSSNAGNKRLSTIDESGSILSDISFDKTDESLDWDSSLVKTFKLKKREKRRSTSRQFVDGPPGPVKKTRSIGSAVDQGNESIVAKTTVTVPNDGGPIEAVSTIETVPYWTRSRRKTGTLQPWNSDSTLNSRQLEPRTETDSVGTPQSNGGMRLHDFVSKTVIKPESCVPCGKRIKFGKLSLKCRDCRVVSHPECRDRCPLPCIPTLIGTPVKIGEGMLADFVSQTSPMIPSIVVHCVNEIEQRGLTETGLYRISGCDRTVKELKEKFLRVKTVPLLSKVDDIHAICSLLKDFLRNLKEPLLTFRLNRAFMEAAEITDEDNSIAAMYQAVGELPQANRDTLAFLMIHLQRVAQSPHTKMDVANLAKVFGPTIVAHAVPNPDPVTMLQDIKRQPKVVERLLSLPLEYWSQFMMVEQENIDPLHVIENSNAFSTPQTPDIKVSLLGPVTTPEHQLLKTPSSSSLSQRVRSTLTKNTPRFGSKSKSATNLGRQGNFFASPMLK

[5] = A Cell Based Secondary Assay To Explore Cytotoxicity of Compounds that Sensitize Mycobacterium Tuberculosis to Beta-Lactam Antibiotics.; assay type: functional
[6] = test system: Streptococcus sp. 'group A'; assay: Streptococcus pyogenes SK(-)GAS viability under kanamycin – luminescence, BacTiterGlo, confirmation, counter-screen for streptokinase expression inhibitor project, dose response (AID 1900); assay type: functional, organism-based
Streptokinase A = molecular target: T2, Streptokinase A (Streptococcus pyogenes serotype M1, UniProt P10520); assay: viability-normalized secreted streptokinase activity reduction – plasminogen activation absorbance, OD405, dose response (AID 1914); assay type: functional, Streptococcus pyogenes M1 GAS;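 note: secreted streptokinase activity via plasminogen activation per viability signal from cell pellet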
T2 sequence (P10520 whole entry): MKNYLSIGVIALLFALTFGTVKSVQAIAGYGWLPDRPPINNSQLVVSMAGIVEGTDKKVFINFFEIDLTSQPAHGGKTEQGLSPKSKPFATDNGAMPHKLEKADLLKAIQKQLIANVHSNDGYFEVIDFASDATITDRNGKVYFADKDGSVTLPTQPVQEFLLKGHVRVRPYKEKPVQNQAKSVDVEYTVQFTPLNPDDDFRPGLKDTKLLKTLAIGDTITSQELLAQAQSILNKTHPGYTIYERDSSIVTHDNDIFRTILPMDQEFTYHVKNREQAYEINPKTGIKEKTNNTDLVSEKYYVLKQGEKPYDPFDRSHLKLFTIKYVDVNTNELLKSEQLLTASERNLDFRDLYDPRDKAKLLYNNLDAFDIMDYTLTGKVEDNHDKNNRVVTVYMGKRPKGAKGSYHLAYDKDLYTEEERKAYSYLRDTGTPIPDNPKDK

Streptococcus = assay: GAS UMAA2166 growth inhibition – luminescence, BacTiterGlo, counter-screen for streptokinase expression inhibitor project, dose response (AID 1915); assay type: functional, organism-based;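 note: potency for reduction of bacterial viability or growth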
Mu-type opioid receptor = Mu-type opioid receptor (Homo sapiens, UniProt P35372); assay type: functional, cell-based;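 note: U2OS cells with beta-arrestin recruitment to OPRM1 by beta-gal complementation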
Chain of Mu-type opioid receptor (P35372 whole entry): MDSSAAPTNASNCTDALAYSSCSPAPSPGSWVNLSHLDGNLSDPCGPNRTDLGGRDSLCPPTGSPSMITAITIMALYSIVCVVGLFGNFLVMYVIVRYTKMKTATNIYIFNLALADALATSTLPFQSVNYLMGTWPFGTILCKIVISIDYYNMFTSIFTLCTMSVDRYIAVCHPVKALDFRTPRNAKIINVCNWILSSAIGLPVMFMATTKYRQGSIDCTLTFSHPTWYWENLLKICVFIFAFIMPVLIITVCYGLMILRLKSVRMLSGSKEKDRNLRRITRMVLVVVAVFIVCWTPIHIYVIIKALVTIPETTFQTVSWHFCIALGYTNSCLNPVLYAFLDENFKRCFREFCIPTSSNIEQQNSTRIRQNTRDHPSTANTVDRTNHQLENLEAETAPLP

[7] = molecular target: 5-hydroxytryptamine receptor 2A (Mus musculus, UniProt P35363); assay type: functional, cell-based;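 note: CHO-K1 cells with tagged receptor and beta-arrestin; agonist potency measured as compound-induced activation of the receptor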
Chain of 5-hydroxytryptamine receptor 2A (P35363 whole entry): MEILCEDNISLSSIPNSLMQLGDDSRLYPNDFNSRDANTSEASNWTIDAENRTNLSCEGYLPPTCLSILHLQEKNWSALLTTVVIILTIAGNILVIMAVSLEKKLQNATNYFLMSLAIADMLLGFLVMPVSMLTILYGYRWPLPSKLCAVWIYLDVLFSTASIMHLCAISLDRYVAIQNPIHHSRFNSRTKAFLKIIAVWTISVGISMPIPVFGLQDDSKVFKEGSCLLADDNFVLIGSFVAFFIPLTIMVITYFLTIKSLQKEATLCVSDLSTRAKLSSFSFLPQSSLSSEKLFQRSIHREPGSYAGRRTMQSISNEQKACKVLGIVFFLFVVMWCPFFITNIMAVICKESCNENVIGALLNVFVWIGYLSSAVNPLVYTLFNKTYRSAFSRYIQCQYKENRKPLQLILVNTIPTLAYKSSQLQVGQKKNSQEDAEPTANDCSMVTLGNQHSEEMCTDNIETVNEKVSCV

[8] = molecular target: T3, Trace amine-associated receptor 1 (Homo sapiens, UniProt Q96RJ0); assay: Fluorescence-based cell-based high throughput dose response assay to identify agonists of the human trace amine associated receptor 1 (TAAR1).; assay type: functional
T3 sequence (Q96RJ0 whole entry): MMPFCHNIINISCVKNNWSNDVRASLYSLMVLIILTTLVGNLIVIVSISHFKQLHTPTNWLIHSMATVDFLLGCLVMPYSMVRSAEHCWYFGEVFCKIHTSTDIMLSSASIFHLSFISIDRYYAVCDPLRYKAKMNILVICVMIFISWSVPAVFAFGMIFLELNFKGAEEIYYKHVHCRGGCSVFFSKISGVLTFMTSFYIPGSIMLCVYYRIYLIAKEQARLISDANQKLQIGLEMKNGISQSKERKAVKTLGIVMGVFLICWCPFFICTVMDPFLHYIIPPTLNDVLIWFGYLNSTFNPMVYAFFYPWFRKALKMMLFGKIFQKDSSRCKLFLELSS

[9] = molecular target: T3, Trace amine-associated receptor 1; assay: Counterscreen for agonists of the human trace amine associated receptor 1 (hTAAR1): Fluorescence-based cell-based high throughput dose response assay to identify hTAAR1 agonist that also desensitize TAAR1 receptor response.; assay type: functional
[10] = molecular target: T4, DNA repair and recombination protein RAD54-like (Homo sapiens, UniProt Q92698); assay: RAD54 Holliday junction migration blockers – biochemical, fluorescence, cherry-picked samples, dose series, confirmation (AID 651657); assay type: functional
T4 sequence (Q92698 whole entry): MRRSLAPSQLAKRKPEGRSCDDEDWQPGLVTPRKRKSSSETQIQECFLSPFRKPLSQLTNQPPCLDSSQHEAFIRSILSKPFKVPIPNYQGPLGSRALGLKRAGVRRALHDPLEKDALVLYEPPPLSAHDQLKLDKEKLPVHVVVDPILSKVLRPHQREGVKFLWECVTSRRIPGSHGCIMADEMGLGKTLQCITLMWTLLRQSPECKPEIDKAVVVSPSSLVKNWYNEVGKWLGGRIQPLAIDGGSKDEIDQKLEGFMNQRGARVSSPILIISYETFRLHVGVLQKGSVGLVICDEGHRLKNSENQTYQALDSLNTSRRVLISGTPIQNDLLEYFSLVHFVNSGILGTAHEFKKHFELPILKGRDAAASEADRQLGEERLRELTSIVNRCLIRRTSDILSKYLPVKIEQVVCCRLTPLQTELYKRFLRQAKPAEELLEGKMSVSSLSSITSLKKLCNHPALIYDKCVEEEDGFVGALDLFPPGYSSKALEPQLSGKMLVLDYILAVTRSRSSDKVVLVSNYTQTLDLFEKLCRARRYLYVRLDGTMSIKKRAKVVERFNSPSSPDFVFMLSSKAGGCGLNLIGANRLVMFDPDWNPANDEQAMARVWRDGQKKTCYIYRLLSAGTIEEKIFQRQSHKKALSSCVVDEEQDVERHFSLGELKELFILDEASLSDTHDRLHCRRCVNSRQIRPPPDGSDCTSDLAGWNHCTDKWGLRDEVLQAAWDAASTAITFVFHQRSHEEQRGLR

cells [11] = assay type: functional, cell-based
cells [12] = assay type: functional, cell-based; remark: listed apart in the source
Large T antigen = Large T antigen (Simian virus 40, UniProt P03070); assay type: functional, Betapolyomavirus macacae;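 note: Confirmatory-stage PubChem screen for compounds that inhibit SV40 T antigen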
Chain of Large T antigen (P03070 whole entry, the tested form may be a part): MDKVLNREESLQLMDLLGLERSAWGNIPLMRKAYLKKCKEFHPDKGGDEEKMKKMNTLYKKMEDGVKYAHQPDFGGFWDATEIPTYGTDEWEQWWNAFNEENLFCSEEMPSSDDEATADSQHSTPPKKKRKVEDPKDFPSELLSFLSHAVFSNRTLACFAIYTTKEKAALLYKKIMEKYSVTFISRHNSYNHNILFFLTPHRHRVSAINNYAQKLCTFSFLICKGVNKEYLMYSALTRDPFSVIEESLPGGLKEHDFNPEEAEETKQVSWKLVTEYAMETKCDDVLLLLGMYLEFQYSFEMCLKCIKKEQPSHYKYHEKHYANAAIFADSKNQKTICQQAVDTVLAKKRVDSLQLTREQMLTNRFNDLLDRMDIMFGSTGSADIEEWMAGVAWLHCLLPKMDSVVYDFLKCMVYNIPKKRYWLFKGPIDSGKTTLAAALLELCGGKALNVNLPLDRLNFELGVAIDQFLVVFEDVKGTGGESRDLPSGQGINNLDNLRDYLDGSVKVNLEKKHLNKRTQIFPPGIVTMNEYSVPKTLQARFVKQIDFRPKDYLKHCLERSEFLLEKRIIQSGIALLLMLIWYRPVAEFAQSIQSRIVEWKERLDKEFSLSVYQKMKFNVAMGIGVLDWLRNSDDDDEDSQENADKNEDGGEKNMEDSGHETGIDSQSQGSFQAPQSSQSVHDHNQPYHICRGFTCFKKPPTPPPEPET

[13] = molecular target: T5, Sentrin-specific protease 1 (Homo sapiens, UniProt Q9P0U3); assay: Dose response confirmation of small molecule inhibitors of the catalytic domain of the SUMO protease, SENP1 in a FRET assay.; assay type: functional; settings: read-out: IC50_Mean
T5 sequence (Q9P0U3 whole entry): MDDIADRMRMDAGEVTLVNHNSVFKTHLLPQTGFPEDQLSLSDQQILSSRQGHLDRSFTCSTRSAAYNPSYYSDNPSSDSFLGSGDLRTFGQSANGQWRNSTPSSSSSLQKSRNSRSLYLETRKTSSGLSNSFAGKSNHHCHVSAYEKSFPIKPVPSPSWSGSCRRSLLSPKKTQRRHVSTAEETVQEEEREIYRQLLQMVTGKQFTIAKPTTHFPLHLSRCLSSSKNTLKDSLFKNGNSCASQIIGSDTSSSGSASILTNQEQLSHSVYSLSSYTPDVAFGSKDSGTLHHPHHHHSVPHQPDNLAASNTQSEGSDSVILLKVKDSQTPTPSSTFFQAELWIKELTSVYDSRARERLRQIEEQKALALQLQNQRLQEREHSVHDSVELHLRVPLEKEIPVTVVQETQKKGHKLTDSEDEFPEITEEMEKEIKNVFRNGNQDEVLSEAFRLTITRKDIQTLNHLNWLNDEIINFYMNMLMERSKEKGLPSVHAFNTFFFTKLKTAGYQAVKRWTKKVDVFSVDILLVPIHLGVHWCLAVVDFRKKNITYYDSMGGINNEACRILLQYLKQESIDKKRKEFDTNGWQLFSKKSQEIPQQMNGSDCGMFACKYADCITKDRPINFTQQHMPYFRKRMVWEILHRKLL

[14] = molecular target: T5, Sentrin-specific protease 1; assay: SENP1 catalytic domain blockers, concentration series – biochemical, kinetic FRET, dose response (AID 651697); assay type: functional; settings: read-out: IC50_Mean
[15] = molecular target: Fructose-bisphosphate aldolase (Mycobacterium tuberculosis, UniProt P9WQA3); assay: Fluorescence-based biochemical high throughput dose response assay for inhibitors of the fructose-bisphosphate aldolase (FBA) of M. tuberculosis.; assay type: functional
Chain of Fructose-bisphosphate aldolase (P9WQA3 whole entry): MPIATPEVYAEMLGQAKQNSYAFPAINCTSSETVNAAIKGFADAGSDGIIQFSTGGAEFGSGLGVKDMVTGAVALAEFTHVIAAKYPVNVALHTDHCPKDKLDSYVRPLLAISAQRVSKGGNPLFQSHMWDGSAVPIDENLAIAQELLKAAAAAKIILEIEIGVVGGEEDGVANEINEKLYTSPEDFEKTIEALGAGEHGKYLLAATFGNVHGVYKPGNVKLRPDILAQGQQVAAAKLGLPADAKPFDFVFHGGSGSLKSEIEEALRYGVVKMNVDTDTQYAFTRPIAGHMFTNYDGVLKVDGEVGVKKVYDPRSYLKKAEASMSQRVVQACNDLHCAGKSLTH

Cysteine protease ATG4B = molecular target: T6, Cysteine protease ATG4B (Homo sapiens, UniProt Q9Y4P1); assay type: functional;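 note: Fluorescence-based dose-response confirmation assay measuring inhibition of ATG4B activity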
T6 sequence (Q9Y4P1 whole entry): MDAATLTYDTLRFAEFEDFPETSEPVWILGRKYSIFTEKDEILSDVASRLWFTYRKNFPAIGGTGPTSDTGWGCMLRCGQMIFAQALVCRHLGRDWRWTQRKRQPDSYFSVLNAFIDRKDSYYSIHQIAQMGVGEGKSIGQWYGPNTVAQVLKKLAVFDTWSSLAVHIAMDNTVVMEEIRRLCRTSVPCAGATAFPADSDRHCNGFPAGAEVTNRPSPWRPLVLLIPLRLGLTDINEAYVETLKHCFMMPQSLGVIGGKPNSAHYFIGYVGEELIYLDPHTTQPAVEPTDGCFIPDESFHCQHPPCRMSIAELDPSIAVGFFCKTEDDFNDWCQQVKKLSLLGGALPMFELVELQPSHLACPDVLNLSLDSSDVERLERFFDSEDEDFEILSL

Phospholipase A2 = Phospholipase A2 (Homo sapiens, UniProt P04054); assay type: functional;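 note: confirmatory dose-response counterscreen on phospholipase A2, testing hits that came from an ultra-high-throughput screen for ATG4B inhibitors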
Chain of Phospholipase A2 (P04054 whole entry): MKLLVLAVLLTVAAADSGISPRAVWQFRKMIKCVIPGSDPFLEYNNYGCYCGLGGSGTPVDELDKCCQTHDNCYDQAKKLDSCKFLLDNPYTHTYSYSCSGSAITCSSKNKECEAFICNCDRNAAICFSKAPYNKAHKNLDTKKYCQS

Cytochrome P450 1A2 = molecular target: T7, Cytochrome P450 1A2 (Homo sapiens, UniProt P05177);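 note: PubChem cytochrome P450 panel assay, CYP1A2 panel member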
T7 sequence (P05177 whole entry): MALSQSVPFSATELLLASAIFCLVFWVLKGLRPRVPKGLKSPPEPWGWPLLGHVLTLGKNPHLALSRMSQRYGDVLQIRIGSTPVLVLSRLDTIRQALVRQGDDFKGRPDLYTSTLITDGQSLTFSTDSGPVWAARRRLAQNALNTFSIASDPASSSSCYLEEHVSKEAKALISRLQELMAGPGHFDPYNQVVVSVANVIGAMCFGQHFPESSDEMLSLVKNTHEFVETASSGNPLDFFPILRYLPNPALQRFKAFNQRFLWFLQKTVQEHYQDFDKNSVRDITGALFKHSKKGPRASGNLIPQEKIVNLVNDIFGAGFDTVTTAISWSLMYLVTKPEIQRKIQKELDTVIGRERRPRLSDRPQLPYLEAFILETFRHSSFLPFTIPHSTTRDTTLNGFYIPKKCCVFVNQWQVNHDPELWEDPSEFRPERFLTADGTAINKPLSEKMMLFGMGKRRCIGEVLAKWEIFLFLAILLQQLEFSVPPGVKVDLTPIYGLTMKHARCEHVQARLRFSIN

[16] = HIV-1 AD8 envelope cell-cell fusion blockers – cherry-pick, dose response (AID 652062); assay type: functional, cell-based;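 note: luciferase signal from cell-cell fusion driven by HIV-1 clade B AD8 Env; potency is for inhibitors of fusion seen as a drop in luminescence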
[17] = blockers of HIV-1 ZM109 envelope-driven cell-cell fusion – HeLa effector, CEM target cells, luciferase, cherry-pick, dose response (AID 652058); assay type: functional, cell-based;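 note: luciferase signal from HIV-1 Env mediated cell-cell fusion of effector and target cells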

CCc1nc(N2CCCCC2)c2oc3ccccc3c2n1
AC50 [1]: 30.8 µM (active)
AC50 [2]: 41.8 µM (active)

Cc1ccc2c(c1)[nH]c1c(N3CCN(Cc4ccccc4)CC3)ncnc12
AC50 (INS1): 3.89 µM (active)
CC50 [3]: 57.9 µM (active)
IC50 [4]: 47.8 µM (active)

COc1ccc2oc(C(=O)Nc3nc4ccccc4[nH]3)c(C)c2c1
CC50 [5]: > 40 µM (active)
EC50 [6]: 2.61 µM (active)
EC50 (Streptokinase A): > 150 µM (not active)
EC50 (Streptococcus): 12 µM (active)
EC50 (Mu-type opioid receptor): 92.5 µM (inactive)
EC50 [7]: 76.1 µM (inactive)

OCCNc1nc(Nc2ccc(O)cc2)nc2ccccc12
EC50 [8]: 0.578 µM (active)
IC50 [9]: 1.64 µM (active)
AC50 [10]: 38.6 µM (active)
EC50 (cells [11]): > 29.9 µM (inactive)
IC50 (cells [12]): > 29.9 µM (inactive)
IC50 (Large T antigen): 4.5 µM (active)

Cc1ccc2n(n1)c(=O)c(Cc1ccccc1)c([O-])[n+]2-c1ccccc1
IC50 [13]: 12.7 µM (active)
IC50 [14]: 16.8 µM (active)

N#CCCN(C(=O)COc1ccc(F)cc1Br)c1ccccc1F
IC50 [15]: > 9.99 µM (inactive)

CCO[C@@H]1c2c(ccc3ccc(=O)oc23)OC(C)(C)[C@H]1O
IC50 [15]: > 1.11 µM (active)

CC(C)c1ccc2nc3sc(C(=O)N4CCc5ccccc5C4)c(N)c3cc2c1
IC50 [13]: 5.22 µM (active)
IC50 [14]: 2.58 µM (active)
IC50 (Cysteine protease ATG4B): 7.08 µM (active)
IC50 (Phospholipase A2): 4.83 µM (active)
EC50 [6]: 25.6 µM (active)
EC50 (Streptokinase A): 101 µM (active)
AC50 (Cytochrome P450 1A2): 11.2 µM (inconclusive)
EC50 (Streptococcus): > 150 µM (not active)

Cn1c2c(c3ccccc31)CCN(CCCCN1CCN(c3ccccc3)CC1)C2=O
EC50 (Mu-type opioid receptor): 92.4 µM (inactive)
EC50 [7]: 0.0455 µM (active)

COc1ccc2c3c([nH]c2c1)[C@@H](CO)N(C(=O)Nc1cccc(F)c1)CC31CN(S(=O)(=O)c2cccc(C)c2)C1
AC50 [16]: 24.2 µM (active)
AC50 [17]: 14.9 µM (active)
AC50 [1]: 22.7 µM (active)
AC50 [2]: 23.1 µM (active)

CCOc1ccc(C/C(=N/CCc2ccccc2)C2=C(O)CC(C)(C)CC2=O)cc1OCC
EC50 [8]: 0.358 µM (active)
IC50 [9]: 2.84 µM (active)
EC50 (cells [11]): > 29.9 µM (inactive)
IC50 (cells [12]): > 29.9 µM (inactive)

Reference: ChEMBL document CHEMBL1201862, “PubChem BioAssay data set” (2004)
